Legend:
human CB1 receptor = molecular target: T1, human CB1 receptor (Homo sapiens, UniProt P21554); assay: competitive radioligand binding assay, displacement of [3H]CP55,940, CB1; conditions: for IC50: displacement of specific [3H]-CP55940 binding in HEK 293 cells stably transfected with human CB1 receptor
T1 construct: expressed in transfected cells; membrane-enriched fractions
Method: (§1) In addition, the affinity of test compounds of this invention toward CB1 and CB2 receptors was determined by competitive radioligand binding assays in vitro. This method differentiates the binding strength between compounds by their abilities in displacing a receptor-specific radioactive ligand. […] The readings of the radioactivity retained allow further analysis of receptor binding, and assist in predictions of the pharmacological activities of the test compounds.
(§2) In the assays, CB1 receptors are from human CB1 stably expressed cell lines, and CB2 receptors are from human CB2 stably expressed cell lines. For purification of membrane-enriched fractions, cells were scraped off from the culture dishes in ice-cold buffer A (50 mM Tris, 5 mM MgCl2, 2.5 mM EDTA, pH 7.4, 10% sucrose) with 1 mM PMSF. After sonication, the membrane-enriched fractions were centrifuged for 15 minutes at 2,000×g at 4° C. The supernatant was centrifuged again for 30 minutes at 43,000×g at 4° C. The final pellet was re-suspended in buffer A and stored at −80° C. The protein concentration of the purified membrane was determined by the Bradford method as described by the manual provided by Bio-Rad Laboratories, Inc., Hercules, Calif.
(§3) During the receptor binding experiments, 0.2˜8 μg of membrane fractions were incubated with 0.75 nM [^3H]CP55,940 and a test compound in the incubation buffer of 50 mM Tris-HCl, 5 mM MgCl2, 1 mM EDTA, 0.3% BSA, pH 7.4. The non-specific binding was determined by using 1 μM of CP55,940. The mixture was incubated for 1.5 hours at 30° C. in Multiscreen microplates (Millipore, Billerica, Mass.). At the completion of the incubation, the reaction was terminated by Manifold filtration and washed with ice-cold wash buffer (50 mM Tris, pH 7.4, 0.25% BSA) four times. The radioactivity bound to the filters was measured by Topcount (Perkin Elmer Inc.).

human CB2 receptor = molecular target: T2, human CB2 receptor (Homo sapiens, UniProt P34972); assay: competitive radioligand binding assay, displacement of [3H]CP55,940, CB2
T2 construct: expressed in transfected cells; membrane-enriched fractions
Method: as §1, §2, §3

[1] = Table 1, percent inhibition at 10 μM
[2] = Table 2, percent inhibition at 10 μM

T1 sequence (P21554 whole entry): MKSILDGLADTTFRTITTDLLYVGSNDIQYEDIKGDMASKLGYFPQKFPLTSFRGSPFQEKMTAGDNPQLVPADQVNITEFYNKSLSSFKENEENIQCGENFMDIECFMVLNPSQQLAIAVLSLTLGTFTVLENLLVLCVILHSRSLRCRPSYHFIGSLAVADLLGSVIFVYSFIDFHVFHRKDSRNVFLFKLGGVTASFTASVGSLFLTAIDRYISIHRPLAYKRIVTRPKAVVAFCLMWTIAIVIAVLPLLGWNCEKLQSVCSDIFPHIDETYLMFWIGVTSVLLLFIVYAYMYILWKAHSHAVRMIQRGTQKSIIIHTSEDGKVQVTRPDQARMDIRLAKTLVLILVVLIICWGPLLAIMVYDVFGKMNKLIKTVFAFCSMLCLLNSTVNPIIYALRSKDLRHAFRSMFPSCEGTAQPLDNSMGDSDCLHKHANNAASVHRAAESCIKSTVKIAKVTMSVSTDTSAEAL
T2 sequence (P34972 whole entry): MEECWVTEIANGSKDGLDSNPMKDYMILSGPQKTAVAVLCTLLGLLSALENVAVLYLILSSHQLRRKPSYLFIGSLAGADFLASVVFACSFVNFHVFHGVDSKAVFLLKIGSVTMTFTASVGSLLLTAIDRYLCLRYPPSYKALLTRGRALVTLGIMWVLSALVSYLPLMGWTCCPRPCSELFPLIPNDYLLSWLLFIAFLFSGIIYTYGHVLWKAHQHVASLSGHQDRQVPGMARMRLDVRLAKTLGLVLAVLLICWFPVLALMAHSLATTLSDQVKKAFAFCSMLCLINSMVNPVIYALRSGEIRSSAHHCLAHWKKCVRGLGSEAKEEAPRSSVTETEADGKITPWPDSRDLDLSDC

SMILES | inhibition at 10 µM (human CB1 receptor; [1]) [%] | inhibition at 10 µM (human CB1 receptor; [2]) [%] | also measured
CCCCCCCNC(=O)NNC(=O)Cn1nnc(-c2ccc(Cl)cc2)c1-c1ccc(Cl)cc1 [Compound 50] | 27.5 | – | –
O=C(Cn1nnc(-c2ccc(Cl)cc2)c1-c1ccc(Cl)cc1)N1CCCCC1 [Compound 16] | 33 | – | –
O=C(Cn1nc(-c2ccc(Cl)cc2Cl)c(-c2ccc(Cl)cc2Cl)n1)N[C@@H](CO)[C@H](O)c1ccccc1 [Compound 137] | – | 59.3 | –
O=C(Cn1nc(-c2ccc(Cl)cc2Cl)c(-c2ccc(Cl)cc2Cl)n1)NC1CCCCC1 [Compound 119] | – | 74.2 | –
O=C(Cn1nnc(-c2cccc(F)c2)c1-c1cccc(F)c1)N1CCCCC1 [Compound 18] | 19.7 | – | –
COc1ccccc1CNC(=O)Cn1nc(-c2ccc(Cl)cc2Cl)c(-c2ccc(Cl)cc2Cl)n1 [Compound 196] | – | – | IC50 (human CB1 receptor): 0.125 ± 0.0231 µM; IC50 (human CB2 receptor; cells printed in μM): > 10 µM
O=C(Cn1nc(-c2ccc(Cl)cc2Cl)c(-c2ccc(Cl)cc2Cl)n1)Nc1ccccc1 [Compound 147] | – | 99.5 | IC50 (human CB1 receptor): 0.251 ± 0.0881 µM; IC50 (human CB2 receptor; cells printed in μM): > 10 µM
O=C(Cn1nnc(-c2ccccc2)c1-c1ccccc1)NN1CCCCC1 [Compound 8] | 12.3 | – | –
O=C(Cn1nnc(-c2ccccc2)c1-c1ccccc1)OCc1ccccc1 [Compound 15] | 35.4 | – | –
CCOC(=O)Cn1nc(-c2ccccc2)c(-c2ccccc2)n1 [Compound 110] | – | 59.1 | –
O=C(Cn1nc(-c2ccc(Cl)cc2Cl)c(-c2ccc(Cl)cc2Cl)n1)N1CCCCC1 [Compound 120] | – | 93.7 | IC50 (human CB2 receptor; human CB2 stably expressed cell line membranes): 5.9 ± 0.764 µM
CCCCOC(=O)Cn1nnc(-c2ccc(Cl)cc2)c1-c1ccc(Cl)cc1 [Compound 14] | 64.1 | – | –
COc1ccc(CNC(=O)Cn2nc(-c3ccc(Cl)cc3)c(-c3ccc(Cl)cc3Cl)n2)cc1 [Compound 149] | – | 78.2 | IC50 (human CB1 receptor): 0.684 ± 0.428 µM
O=C(Cn1nc(-c2ccc(Cl)cc2Cl)c(-c2ccc(Cl)cc2Cl)n1)Oc1ccccc1 [Compound 124] | – | 14.3 | –
O=C(NC12CC3CC(CC(C3)C1)C2)n1nc(-c2ccc(Cl)cc2)c(-c2ccc(Cl)cc2)n1 [Compound 107] | – | 19.7 | –
C#CC1(NC(=O)Cn2nc(-c3ccc(Cl)cc3Cl)c(-c3ccc(Cl)cc3Cl)n2)CCCCC1 [Compound 126] | – | 102 | IC50 (human CB1 receptor): 0.0868 ± 0.001 µM
CCCCCCCCNC(=O)n1nc(-c2ccc(Cl)cc2Cl)c(-c2ccc(Cl)cc2Cl)n1 [Compound 98] | – | – | CB1 Inhibition (%) (10 μM) (human CB1 receptor; Table 2, percent inhibition at 10 μM, 10 µM): 19.40%
O=C(Cn1nc(-c2ccc(Cl)cc2)c(-c2ccc(Cl)cc2Cl)n1)NCc1ccccc1C(F)(F)F [Compound 158] | – | 92.5 | IC50 (human CB1 receptor): 0.302 ± 0.133 µM
CCCCCNC(=O)n1nc(-c2ccc(Cl)cc2)c(-c2ccc(Cl)cc2Cl)n1 [Compound 90] | – | 14.4 | –
CCCCCCCNC(=O)n1nc(-c2ccc(Cl)cc2)c(-c2ccc(Cl)cc2Cl)n1 [Compound 95] | – | 14.9 | –
COc1cccc(CNC(=O)Cn2nc(-c3ccc(Cl)cc3)c(-c3ccc(Cl)cc3Cl)n2)c1 [Compound 156] | – | 69.5 | –
CCCCCCCOC(=O)Cn1nnc(-c2ccc(Cl)cc2)c1-c1ccc(Cl)cc1 [Compound 25] | 53.6 | – | –
CCCCCCCNC(=O)n1nc(-c2ccc(Cl)cc2)c(-c2ccc(Cl)cc2)n1 [Compound 87] | – | 12.9 | –
CCCCCCOC(=O)Cn1nnc(-c2ccc(Cl)cc2)c1-c1ccc(Cl)cc1 [Compound 28] | 36.5 | – | –

From patent publication US8293773B2, “1, 2, 3-triazole derivatives as new cannabinoid-1 receptor antagonists” (National Tsing Hua University, priority 2008, dated 2012)
